From PMC5164944 (Biochemical pharmacology, 2016)
Where two headings read alike, the source gives them in different places. Marks after values point to notes of the source that are not given here.

What was measured:
[1] = Steady state plasma concentrations in subjects on chronic bupropion XL; details: for Mean [I] (Range, n=5): 5 subjects, normalized to 300 mg/day bupropion dose
CYP2D6 [2] = biological target: T1, CYP2D6 (Homo sapiens, UniProt P10635); assay: Reversible CYP2D6 inhibition in human liver microsomes; details: for effect on CYP2D6 activity: 50 μM test concentration, HLM
T1 sequence (P10635 whole entry): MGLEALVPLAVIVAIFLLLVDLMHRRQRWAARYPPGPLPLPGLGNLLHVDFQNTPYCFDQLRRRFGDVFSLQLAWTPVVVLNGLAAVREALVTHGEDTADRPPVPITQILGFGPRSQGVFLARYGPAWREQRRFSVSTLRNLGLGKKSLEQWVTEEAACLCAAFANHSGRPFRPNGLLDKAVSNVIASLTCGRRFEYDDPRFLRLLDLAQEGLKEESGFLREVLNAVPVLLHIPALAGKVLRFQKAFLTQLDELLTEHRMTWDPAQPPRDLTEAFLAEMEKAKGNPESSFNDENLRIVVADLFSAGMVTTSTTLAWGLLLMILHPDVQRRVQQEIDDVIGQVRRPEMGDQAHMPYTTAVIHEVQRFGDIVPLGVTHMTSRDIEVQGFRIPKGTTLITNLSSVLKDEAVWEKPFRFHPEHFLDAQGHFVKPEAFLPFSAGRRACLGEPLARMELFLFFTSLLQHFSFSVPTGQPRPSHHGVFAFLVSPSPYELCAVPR

[3] = female, human, 2.5 μM
CYP2D6 mRNA [4] = assay: in vitro; details: human
CYP2D6 [5] = biological target: T1, CYP2D6; assay: CYP2D6 inhibition in human suspension hepatocytes
[6] = Plasma protein binding by ultracentrifugation; format: in vitro ADME, human; details: unbound fraction in plasma
CYP2D6 [7] = biological target: T1, CYP2D6; assay: Static prediction of in vivo reversible CYP2D6 inhibition; details: for share of the predicted CYP2D6 inhibition in vivo caused by the compound: reversible inhibition only
CYP2D6 mRNA [8] = assay: CYP2D6 mRNA in plated human hepatocytes; details: for mean CYP2D6 mRNA levels, % of vehicle treated cells: three donors, 72 hours
[9] = Partitioning into human suspension hepatocytes; details: 1 μM, 30 min, total concentrations
CYP2D6 mRNA [10] = assay: CYP2D6 mRNA downregulation in HepG2 cells; details: for EC50: read-out: EC50 of CYP2D6 mRNA downregulation, 72 hrs
[11] = test system: CYP2D6 protein expression; assay: CYP2D6 protein expression in HepG2 cells; details: 72 hrs; for effect on CYP2D6 protein expression: erythrohydrobupropion 5 μM, threohydrobupropion 20 μM, R,R-OH-bupropion 20 μM
CYP2D6 [12] = biological target: T1, CYP2D6; assay: CYP2D6 activity in plated human hepatocytes; details: after 72 hr treatment
[13] = Media concentrations of bupropion and metabolites in plated human hepatocytes; details: for concentration of metabolite formed in bupropion treated cells: plated human hepatocytes treated with bupropion 2.5 μM; for Cmedia at 72 hr: 1 hr incubation after 71 hours treatment; for Cmedia at 1 hr: after 1 hr incubation without pretreatment
CYP2D6 [14] = biological target: T1, CYP2D6; details: from HepG2 Emax/EC50 and circulating concentrations, 300 mg/day bupropion
CYP3A4 mRNA = CYP3A4 mRNA in plated human hepatocytes; format: cell-based; details: 72 hours
[15] = cited from earlier work
CYP2D6 [16] = details: cited from earlier work

C[C@@H](NC(C)(C)C)C(=O)c1ccc(O)c(Cl)c1 [4′OH-bupropion, 4′-OH-bupropion]
Mean [I] (Range, n=5) ([1]; steady state plasma): 0.01 µM
effect on CYP2D6 activity (CYP2D6 [2]): no effect

CC(NC(C)(C)C)C(=O)c1cccc(Cl)c1 (stereo not shown) [Bupropion]
reduction of media concentration at the end of the pretreatment ([3]; 71 h): 93%
Cmedia at 72 hr ([3]; 72 h): 1.7 ± 0.5 µM
EC50 at 72 h (CYP2D6 mRNA [4]): 210 nM
IC50 (CYP2D6 [5]): 13000 nM

CC(NC(C)(C)C)C(O)c1cccc(Cl)c1 (stereo not drawn) [Erythro-hydrobupropion, erythrohydrobupropion]
fu,p (S.D. n=3) [6]: 0.7±0.1
share of the predicted CYP2D6 inhibition in vivo caused by the compound (CYP2D6 [7]): 9%
% decrease in CYP2D6 mRNA at 72 hrs (CYP2D6 mRNA [8]): 80%
mean CYP2D6 mRNA levels, % of vehicle treated cells (CYP2D6 mRNA [8]): 20%
cell concentration fold higher than medium [9]: 9 fold
maximum decrease in CYP2D6 mRNA (CYP2D6 mRNA [10]; 72 hrs): 85%
EC50 (CYP2D6 mRNA [10]): 1110 nM
effect on CYP2D6 protein expression [11]: slightly less effective
Apparent Percent Inhibition at 72 hrs (CYP2D6 [12]): 93 ± 1%
circulating concentration fold higher than S-bupropion ([1]; steady state plasma): ~3 fold
circulating concentration fold lower than threohydrobupropion ([1]; steady state plasma): about 6 fold
Mean [I] (Range, n=5) ([1]; steady state plasma): 0.29 (0.19–0.41) μM
concentration of metabolite formed in bupropion treated cells [13]: 80 nM
Cmedia at 72 hr ([13]; plated human hepatocytes): 2.1 ± 0.3 µM
Cmedia at 1 hr ([13]; plated human hepatocytes): 1.6 ± 0.1 µM
predicted decrease in CYP2D6 mRNA if compound acted alone at steady state (CYP2D6 [14]): 18%
fold more potent CYP2D6 inhibitor than threohydrobupropion (CYP2D6 [2]; based on IC50 values in HLM): ~10 fold

C[C@H]1NC(C)(C)CO[C@]1(O)c1cccc(Cl)c1 [OH-bupropion, hydroxybupropion]
cell concentration fold higher than medium [9]: 11 fold
concentration of metabolite formed in bupropion treated cells [13]: 120 nM

C[C@H]1NC(C)(C)CO[C@]1(O)c1cccc(Cl)c1 [R,R-OH-bupropion]
fu,p (S.D. n=3) [6]: 0.5±0.1
fold higher I/Ki than S,S-OH-bupropion (CYP2D6 [7]): 36 fold
share of the predicted CYP2D6 inhibition in vivo caused by the compound (CYP2D6 [7]): 65%
change in CYP3A4 mRNA (CYP3A4 mRNA): significantly increased CYP3A4 mRNA
R,R-OH-bupropion to S,S-OH-bupropion ratio ([15]; single dose AUCs): 44–65
circulating concentration fold higher than bupropion and S,S-OH-bupropion ([15]; single dose of bupropion): up to 65 fold
% decrease in CYP2D6 mRNA at 72 hrs (CYP2D6 mRNA [8]): 72%
mean CYP2D6 mRNA levels, % of vehicle treated cells (CYP2D6 mRNA [8]): 28%
effect on CYP2D6 mRNA (CYP2D6 mRNA [10]; 5-50 μM, 72 hrs): weakest effect
effect on CYP2D6 protein expression [11]: no effect
Apparent Percent Inhibition at 72 hrs (CYP2D6 [12]): 83 ± 3%
steady state concentration ratio R,R-OH-bupropion / S,S-OH-bupropion ([1]; steady state plasma): 13 fold
Mean [I] (Range, n=5) ([1]; steady state plasma): 5.0 (3.0–9.4) μM
Cmedia at 72 hr ([13]; plated human hepatocytes): 19 ± 3 µM
Cmedia at 1 hr ([13]; plated human hepatocytes): 16 ± 1 µM
reduction of media concentration at the end of the pretreatment ([13]; plated human hepatocytes, versus initial media concentration added): 33%
fold more potent CYP2D6 inhibitor than S,S-OH-bupropion (CYP2D6 [2]; based on IC50 values in HLM): 3 fold

C[C@@H](NC(C)(C)C)C(=O)c1cccc(Cl)c1 [R-Bupropion, R-bupropion, reference compound]
fu,p (S.D. n=3) [6]: 0.5±0.1
Mean [I] (Range, n=5) ([1]; steady state plasma): 0.22 (0.05–0.34) μM

C[C@@H]1NC(C)(C)CO[C@@]1(O)c1cccc(Cl)c1 [S,S-OH-bupropion]
fu,p (S.D. n=3) [6]: 0.5±0.1
% decrease in CYP2D6 mRNA at 72 hrs (CYP2D6 mRNA [8]): 74%
mean CYP2D6 mRNA levels, % of vehicle treated cells (CYP2D6 mRNA [8]): 26%
maximum decrease in CYP2D6 mRNA (CYP2D6 mRNA [10]; 72 hrs): 85–88%
EC50 (CYP2D6 mRNA [10]): 200 nM
downregulation of CYP2D6 protein expression ([11]; 5 μM, western blot): > 50%
Apparent Percent Inhibition at 72 hrs (CYP2D6 [12]): 60 ± 11%
circulating concentration fold higher than S-bupropion ([1]; steady state plasma): ~3 fold
circulating concentration fold lower than threohydrobupropion ([1]; steady state plasma): about 6 fold
Mean [I] (Range, n=5) ([1]; steady state plasma): 0.39 ^* (0.26–0.67) μM
Cmedia at 72 hr ([13]; plated human hepatocytes): 1.5 ± 0.2 µM
Cmedia at 1 hr ([13]; plated human hepatocytes): 1.3 ± 0.1 µM

C[C@H](NC(C)(C)C)C(=O)c1cccc(Cl)c1 [S-Bupropion, S-bupropion, reference compound]
fu,p (S.D. n=3) [6]: 0.6±0.1
Mean [I] (Range, n=5) ([1]; steady state plasma): 0.08 ^* (0.02–0.11) μM

C[C@H](NC(C)(C)C)[C@@H](O)c1cccc(Cl)c1 [Threo-hydrobupropion, threohydrobupropion]
fu,p (S.D. n=3) [6]: 1.0±0.1
share of the predicted CYP2D6 inhibition in vivo caused by the compound (CYP2D6 [7]): approximately 21%
% decrease in CYP2D6 mRNA at 72 hrs (CYP2D6 mRNA [8]): 82%
mean CYP2D6 mRNA levels, % of vehicle treated cells (CYP2D6 mRNA [8]): 18%
cell concentration fold higher than medium [9]: 11 fold
maximum decrease in CYP2D6 mRNA (CYP2D6 mRNA [10]; 72 hrs): 78%
fold less potent in downregulating CYP2D6 mRNA than the other compounds (CYP2D6 mRNA [10]; based on EC50): 10–50 fold
EC50 (CYP2D6 mRNA [10]): 9950 nM
Apparent Percent Inhibition at 72 hrs (CYP2D6 [12]): 92 ± 2%
steady state concentration fold higher than erythrohydrobupropion ([1]; average steady state plasma): 7.2 fold
Mean [I] (Range, n=5) ([1]; steady state plasma): 2.1 (1.1–3.5) μM
concentration of metabolite formed in bupropion treated cells [13]: 1400 nM
Cmedia at 72 hr ([13]; plated human hepatocytes): 8.2 ± 1.4 µM
Cmedia at 1 hr ([13]; plated human hepatocytes): 7.1 ± 0.6 µM
predicted decrease in CYP2D6 mRNA if compound acted alone at steady state (CYP2D6 [14]): 14%

CNCCCN1c2ccccc2CCc2ccccc21 [desipramine]
fraction metabolized by CYP2D6 (fm) (CYP2D6 [16]): 90%

CC(NC(C)(C)C)C(O)c1ccc(O)c(Cl)c1 (stereo not drawn) [threo-4′OH-bupropion, threo-4′-OH-hydrobupropion]
effect on CYP2D6 activity (CYP2D6 [2]): no effect

COc1ccc(C(CN(C)C)C2(O)CCCCC2)cc1 (stereo not shown) [venlafaxine]
fraction metabolized by CYP2D6 (fm) (CYP2D6 [16]): 80%
